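GI50: concentration for 50% inhibition of growth. TGI is the concentration that stops growth completely.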
Legend:
Test in all cases: NCI-60 cell line screen, 384-well format
HCT-15 colon = system: HCT-15 colon
HCC-2998 colon = system: HCC-2998 colon
SF-268 CNS = system: SF-268 CNS
MOLT-4 leukemia = system: MOLT-4 leukemia
HL-60(TB) leukemia = system: HL-60(TB) leukemia
NCI-H322M lung = system: NCI-H322M lung
SN12C renal = system: SN12C renal
HCT-116 colon = system: HCT-116 colon
OVCAR-5 ovarian = system: OVCAR-5 ovarian
HOP-92 NSCLC = system: HOP-92 NSCLC
BT-549 breast = system: BT-549 breast
RPMI-8226 leukemia = system: RPMI-8226 leukemia
UACC-62 melanoma = system: UACC-62 melanoma
ACHN renal = system: ACHN renal
CAKI-1 renal = system: CAKI-1 renal
U251 glioblastoma = system: U251 glioblastoma
SNB-19 CNS = system: SNB-19 CNS
SF-295 CNS = system: SF-295 CNS
TK-10 renal = system: TK-10 renal
SK-OV-3 ovarian = system: SK-OV-3 ovarian
NCI-H522 lung = system: NCI-H522 lung
M14 melanoma = system: M14 melanoma
OVCAR-4 ovarian = system: OVCAR-4 ovarian
MDA-MB-468 breast = system: MDA-MB-468 breast
SK-MEL-5 melanoma = system: SK-MEL-5 melanoma
PC-3 prostate = system: PC-3 prostate
MCF7 breast = system: MCF7 breast
SNB-75 CNS = system: SNB-75 CNS
SF-539 CNS = system: SF-539 CNS
786-0 renal = system: 786-0 renal
SK-MEL-2 melanoma = system: SK-MEL-2 melanoma
HS 578T breast = system: HS 578T breast
UACC-257 melanoma = system: UACC-257 melanoma
MDA-MB-435 melanoma = system: MDA-MB-435 melanoma
NCI/ADR-RES ovarian = system: NCI/ADR-RES ovarian
MDA-MB-231 breast = system: MDA-MB-231 breast
OVCAR-8 ovarian = system: OVCAR-8 ovarian
IGROV1 ovarian = system: IGROV1 ovarian
K-562 leukemia = system: K-562 leukemia
RXF 393 renal = system: RXF 393 renal
NCI-H226 lung = system: NCI-H226 lung
HOP-62 NSCLC = system: HOP-62 NSCLC
A549 NSCLC = system: A549 NSCLC
T-47D breast = system: T-47D breast
UO-31 renal = system: UO-31 renal
DU-145 prostate = system: DU-145 prostate
KM12 colon = system: KM12 colon
COLO 205 colon = system: COLO 205 colon
SK-MEL-28 melanoma = system: SK-MEL-28 melanoma
A498 renal = system: A498 renal
MALME-3M melanoma = system: MALME-3M melanoma
OVCAR-3 ovarian = system: OVCAR-3 ovarian
HT29 colon = system: HT29 colon
LOX IMVI melanoma = system: LOX IMVI melanoma
EKVX NSCLC = system: EKVX NSCLC
NCI-H460 NSCLC = system: NCI-H460 NSCLC
NCI-H23 lung = system: NCI-H23 lung
SW-620 colon = system: SW-620 colon
CCRF-CEM leukemia = system: CCRF-CEM leukemia

Cc1c(N)nc([C@H](CC(N)=O)NC[C@H](N)C(N)=O)nc1C(=O)N[C@H](C(=O)N[C@H](C)[C@@H](O)[C@H](C)C(=O)N[C@H](C(=O)NCCc1nc(-c2nc(C(=O)NCCC[S+](C)C)cs2)cs1)[C@@H](C)O)C(OC1OC(CO)C(O)C(O)C1OC1OC(CO)C(O)C(OC(N)=O)C1O)c1cnc[nH]1 (some centres not stated)
GI50 (HCT-15 colon): 0.4 µM | TGI (HCT-15 colon): 16.9 µM | GI50 (HCC-2998 colon): 6.35 µM | TGI (HCC-2998 colon): 53.3 µM | GI50 (SF-268 CNS): 0.6 µM | TGI (SF-268 CNS): 8.37 µM | GI50 (MOLT-4 leukemia): 0.439 µM | TGI (MOLT-4 leukemia): 1.53 µM | GI50 (HL-60(TB) leukemia): 2.66 µM | TGI (HL-60(TB) leukemia): 7.29 µM | GI50 (NCI-H322M lung): 26.1 µM | TGI (NCI-H322M lung): > 100 µM | GI50 (SN12C renal): 1.62 µM | TGI (SN12C renal): 34.9 µM | GI50 (HCT-116 colon): 0.071 µM | TGI (HCT-116 colon): 19 µM | GI50 (OVCAR-5 ovarian): 6.43 µM | TGI (OVCAR-5 ovarian): > 76 µM | GI50 (HOP-92 NSCLC): 0.648 µM | TGI (HOP-92 NSCLC): 23.6 µM | GI50 (BT-549 breast): 1.06 µM | TGI (BT-549 breast): 22.4 µM | GI50 (RPMI-8226 leukemia): 7.9 µM | TGI (RPMI-8226 leukemia): > 100 µM | GI50 (UACC-62 melanoma): 1.26 µM | TGI (UACC-62 melanoma): 20 µM | GI50 (ACHN renal): 0.164 µM | TGI (ACHN renal): 0.929 µM | GI50 (CAKI-1 renal): 1.43 µM | TGI (CAKI-1 renal): > 44.8 µM | GI50 (U251 glioblastoma): 0.522 µM | TGI (U251 glioblastoma): 11.2 µM | GI50 (SNB-19 CNS): 6.76 µM | TGI (SNB-19 CNS): > 52 µM | GI50 (SF-295 CNS): 0.128 µM | TGI (SF-295 CNS): 0.824 µM | GI50 (TK-10 renal): 8.01 µM | TGI (TK-10 renal): > 42.1 µM | GI50 (SK-OV-3 ovarian): 4.84 µM | TGI (SK-OV-3 ovarian): > 64.7 µM | GI50 (NCI-H522 lung): 2.21 µM | TGI (NCI-H522 lung): 16.4 µM | GI50 (M14 melanoma): 1.42 µM | TGI (M14 melanoma): 23.2 µM | GI50 (OVCAR-4 ovarian): 13 µM | TGI (OVCAR-4 ovarian): > 54.7 µM | GI50 (MDA-MB-468 breast): 0.97 µM | TGI (MDA-MB-468 breast): 4.28 µM | GI50 (SK-MEL-5 melanoma): 0.211 µM | TGI (SK-MEL-5 melanoma): 1.17 µM | GI50 (PC-3 prostate): 46.5 µM | TGI (PC-3 prostate): > 100 µM | GI50 (MCF7 breast): 10 µM | TGI (MCF7 breast): > 100 µM | GI50 (SNB-75 CNS): 1.32 µM | TGI (SNB-75 CNS): 6.43 µM | GI50 (SF-539 CNS): 0.234 µM | TGI (SF-539 CNS): 4.56 µM | GI50 ([…]-0 renal): 0.945 µM | GI50 (SK-MEL-2 melanoma): 11.1 µM | TGI (SK-MEL-2 melanoma): 25.5 µM | GI50 (HS 578T breast): 0.266 µM | TGI (HS 578T breast): 5.4 µM | GI50 (UACC-257 melanoma): > 68 µM | TGI (UACC-257 melanoma): > 100 µM | GI50 (MDA-MB-435 melanoma): 71.3 µM | TGI (MDA-MB-435 melanoma): > 100 µM | GI50 (NCI/ADR-RES ovarian): 0.273 µM | TGI (NCI/ADR-RES ovarian): 5.9 µM | GI50 (MDA-MB-231 breast): 31.2 µM | TGI (MDA-MB-231 breast): > 100 µM | GI50 (OVCAR-8 ovarian): 0.41 µM | TGI (OVCAR-8 ovarian): 21 µM | GI50 (IGROV1 ovarian): 3.19 µM | TGI (IGROV1 ovarian): 43.6 µM | GI50 (K-562 leukemia): 8.46 µM | TGI (K-562 leukemia): > 79 µM | GI50 (RXF 393 renal): 2.2 µM | TGI (RXF 393 renal): 10.2 µM | GI50 (NCI-H226 lung): 0.778 µM | TGI (NCI-H226 lung): 9.52 µM | GI50 (HOP-62 NSCLC): 0.169 µM | TGI (HOP-62 NSCLC): 1.19 µM | GI50 (A549 NSCLC): 1.65 µM | TGI (A549 NSCLC): > 92.1 µM | GI50 (T-47D breast): 9.71 µM | TGI (T-47D breast): > 82.5 µM | GI50 (UO-31 renal): 2.08 µM | TGI (UO-31 renal): > 35.3 µM | GI50 (DU-145 prostate): 1.71 µM | TGI (DU-145 prostate): > 20.5 µM | GI50 (KM12 colon): 1.78 µM | TGI (KM12 colon): 27.8 µM | GI50 (COLO 205 colon): 2.96 µM | TGI (COLO 205 colon): 7.57 µM | GI50 (SK-MEL-28 melanoma): 43.7 µM | TGI (SK-MEL-28 melanoma): > 100 µM | GI50 (A498 renal): 1.51 µM | TGI (A498 renal): 25.9 µM | GI50 (MALME-3M melanoma): 18.2 µM | TGI (MALME-3M melanoma): > 100 µM | GI50 (OVCAR-3 ovarian): 3.67 µM | TGI (OVCAR-3 ovarian): 13.7 µM | GI50 (HT29 colon): 16.9 µM | TGI (HT29 colon): > 100 µM | GI50 (LOX IMVI melanoma): 0.57 µM | TGI (LOX IMVI melanoma): 12.3 µM | GI50 (EKVX NSCLC): > 48.2 µM | TGI (EKVX NSCLC): > 100 µM | GI50 (NCI-H460 NSCLC): 0.331 µM | TGI (NCI-H460 NSCLC): 14.6 µM | GI50 (NCI-H23 lung): 1.21 µM | TGI (NCI-H23 lung): 11.9 µM | GI50 (SW-620 colon): 4.95 µM | TGI (SW-620 colon): > 100 µM | GI50 (CCRF-CEM leukemia): 2.08 µM | TGI (CCRF-CEM leukemia): 6.72 µM

Source: PubChem BioAssay (NCI)
